Assay results from ChEMBL document CHEMBL1201862, “PubChem BioAssay data set” (2004).
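Cultured in 96-well plates, cells were exposed to test compound for 48 hours across five concentrations. GI50 is the concentration that inhibits growth by half.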 Calls of active or inactive are those of the source. No stated cut-off is given here; in the data, active = GI50 up to about 1.1 µM and inactive = higher.

Tests used:
Experiment in all cases: growth of human tumour cells (NCI), 48 h
[1] = test system: 786-0
[2] = test system: A549
[3] = test system: CAKI-1
[4] = test system: HCC 2998
[5] = test system: M19-MEL
[6] = test system: Malme-3M
[7] = test system: NCI-H23
[8] = test system: OVCAR-3
[9] = test system: OVCAR-8
[10] = test system: SF-268
[11] = test system: SF-295
[12] = test system: UO-31
[13] = test system: A498
[14] = test system: HL-60
[15] = test system: SK-MEL-2
[16] = test system: UACC-257
[17] = test system: SR
[18] = test system: BT-549
[19] = test system: DU-145
[20] = test system: NCI/ADR-RES

| SMILES | GI50 [1] | GI50 [2] | GI50 [3] | GI50 [4] | GI50 [5] | GI50 [6] | GI50 [7] | GI50 [8] | GI50 [9] | GI50 [10] | GI50 [11] | GI50 [12] | GI50 [13] | GI50 [14] | GI50 [15] | GI50 [16] | GI50 [17] | GI50 [18] | GI50 [19] | GI50 [20] |
| --- | --- | --- | --- | --- | --- | --- | --- | --- | --- | --- | --- | --- | --- | --- | --- | --- | --- | --- | --- | --- |
| O=C(/C=C/c1ccccc1F)c1ccc([N+](=O)[O-])cc1 | 26.8 µM (inactive) | 31.4 µM (inactive) | 15.5 µM (inactive) | 15.6 µM (inactive) | 22.2 µM (inactive) | 27.8 µM (inactive) | 31.2 µM (inactive) | 24.6 µM (inactive) | 25.8 µM (inactive) | 27.2 µM (inactive) | 27.9 µM (inactive) | 11.6 µM (inactive) |  |  |  |  |  |  |  |  |
| Cc1cc(C)nc(NS(=O)(=O)c2ccc(Nc3c4ccccc4nc4c(C(=O)N5CCN(CCO)CC5)ccc(Cl)c34)cc2)n1 | 68.1 µM (inactive) | > 100 µM (inactive) | > 100 µM (inactive) | > 100 µM (inactive) | 76 µM (inactive) | > 100 µM (inactive) | > 100 µM (inactive) | > 100 µM (inactive) | > 100 µM (inactive) | 76.9 µM (inactive) | > 100 µM (inactive) | > 100 µM (inactive) | > 100 µM (inactive) | 34.4 µM (inactive) | > 100 µM (inactive) | 51.5 µM (inactive) |  |  |  |  |
| O=C1C(=O)N(c2ccc(Cl)cc2)C(=O)C(=O)C1c1nc2ccccc2o1 | > 100 µM (inactive) | > 100 µM (inactive) | > 100 µM (inactive) | > 100 µM (inactive) | > 100 µM (inactive) | > 100 µM (inactive) | > 100 µM (inactive) | > 100 µM (inactive) | > 100 µM (inactive) | > 100 µM (inactive) | > 100 µM (inactive) | > 100 µM (inactive) | > 100 µM (inactive) | > 100 µM (inactive) | > 100 µM (inactive) | > 100 µM (inactive) |  |  |  |  |
| COc1ccc(S(=O)(=O)N[C@H](C(=O)O)c2ccccc2)cc1 | > 100 µM (inactive) | > 100 µM (inactive) | > 100 µM (inactive) | > 100 µM (inactive) | > 100 µM (inactive) | > 100 µM (inactive) | > 100 µM (inactive) | > 100 µM (inactive) | > 100 µM (inactive) | > 100 µM (inactive) | > 100 µM (inactive) | > 100 µM (inactive) |  |  | > 100 µM (inactive) | > 100 µM (inactive) |  |  |  |  |
| CCOC(=O)C(=O)Nc1ccc(C)cc1C | > 100 µM (inactive) | > 100 µM (inactive) | > 100 µM (inactive) | > 100 µM (inactive) | > 100 µM (inactive) | > 100 µM (inactive) | > 100 µM (inactive) | > 100 µM (inactive) | > 100 µM (inactive) | > 100 µM (inactive) | > 100 µM (inactive) | > 100 µM (inactive) |  | > 100 µM (inactive) | > 100 µM (inactive) | > 100 µM (inactive) | > 100 µM (inactive) |  |  |  |
| CCCCCCN(CCCCCC)C(=O)Cc1c2n(c3ccccc13)Cc1ccccc1-2 | 85.1 µM (inactive) | 52.8 µM (inactive) | > 100 µM (inactive) | 53.7 µM (inactive) | 60.3 µM (inactive) | 88.9 µM (inactive) | 49.8 µM (inactive) | 43.4 µM (inactive) | 44.8 µM (inactive) | 99.1 µM (inactive) | 56.8 µM (inactive) | 44.6 µM (inactive) |  | 19.8 µM (inactive) | 49.3 µM (inactive) | 49.7 µM (inactive) | 14.9 µM (inactive) |  |  |  |
| Cc1cc(C)c(-c2noc(-c3ccc(Cl)cc3)c2C2=NCCN2)c(C)c1 | 15.3 µM (inactive) | 32.4 µM (inactive) | 76.4 µM (inactive) | 17.8 µM (inactive) | 35.8 µM (inactive) | 20.4 µM (inactive) | 17.4 µM (inactive) | 21 µM (inactive) | > 10 µM (inactive) | 17.3 µM (inactive) | 14 µM (inactive) | 6.38 µM (inactive) |  | 14.4 µM (inactive) | 22.6 µM (inactive) | 17.5 µM (inactive) | 16.4 µM (inactive) |  |  |  |
| CC(C)(C)C1CCC(O)(c2ccccc2)CC1 (centres undefined) | 63.2 µM (inactive) | > 100 µM (inactive) |  | > 100 µM (inactive) | > 100 µM (inactive) | > 100 µM (inactive) | > 100 µM (inactive) | 70.1 µM (inactive) | 88.3 µM (inactive) |  | > 100 µM (inactive) | > 100 µM (inactive) | > 100 µM (inactive) | 27.4 µM (inactive) | > 100 µM (inactive) | 54.6 µM (inactive) | 33.4 µM (inactive) |  |  |  |
| CCCN(CCC)C(=O)C(=O)c1c(N)[nH]n(-c2ccccc2)c1=O | > 100 µM (inactive) | > 100 µM (inactive) | > 100 µM (inactive) | > 100 µM (inactive) | > 100 µM (inactive) | > 100 µM (inactive) | > 100 µM (inactive) | > 100 µM (inactive) | > 100 µM (inactive) | > 100 µM (inactive) | > 100 µM (inactive) | > 100 µM (inactive) | > 100 µM (inactive) | 80.9 µM (inactive) | > 100 µM (inactive) | 45.1 µM (inactive) |  |  |  |  |
| COc1cc(C2SCC(=O)N2c2ccc(-c3ccc(-n4c(-c5ccccc5)nc5ccccc5c4=O)cc3)cc2)ccc1O (centres undefined) | 29.6 µM (inactive) | > 100 µM (inactive) | > 100 µM (inactive) | 82.2 µM (inactive) |  | > 100 µM (inactive) | > 100 µM (inactive) | 61.5 µM (inactive) | 96.6 µM (inactive) | 32.7 µM (inactive) | > 100 µM (inactive) | 24.4 µM (inactive) | > 100 µM (inactive) | 65.3 µM (inactive) | > 100 µM (inactive) | > 100 µM (inactive) | > 10 µM (inactive) | > 100 µM (inactive) | > 100 µM (inactive) | 13.6 µM (inactive) |
| c1ccc2c(c1)SC(=C1Sc3ccccc3S1)S2 | > 100 µM (inactive) | > 100 µM (inactive) | > 100 µM (inactive) | > 100 µM (inactive) | > 100 µM (inactive) | > 100 µM (inactive) | > 100 µM (inactive) | > 100 µM (inactive) | > 100 µM (inactive) | > 100 µM (inactive) | > 100 µM (inactive) | > 100 µM (inactive) |  |  |  |  |  |  |  |  |
| CN(C)CCNC(=O)c1cccc2c(NC(CS)C(=O)O)c3ccccc3nc12 (centres undefined) | 6.64 µM (inactive) | 4.62 µM (inactive) | 5.75 µM (inactive) | 6.21 µM (inactive) |  | 2.52 µM (inactive) | 8.22 µM (inactive) | 13 µM (inactive) | 13.5 µM (inactive) | 7.94 µM (inactive) | 5.32 µM (inactive) | 3.6 µM (inactive) | > 10 µM (inactive) | 3.3 µM (inactive) | 12.1 µM (inactive) | 10.1 µM (inactive) | 96.2 µM (inactive) | 14.5 µM (inactive) | 10.5 µM (inactive) | 9.82 µM (inactive) |
| CC(C)c1cc2c(O)c(c1)Cc1cc(C(C)C)cc(c1O)Cc1cc(C(C)C)cc(c1O)Cc1cc(C(C)C)cc(c1O)Cc1cc(C(C)C)cc(c1O)Cc1cc(C(C)C)cc(c1O)C2 | > 100 µM (inactive) | > 100 µM (inactive) |  | > 100 µM (inactive) | > 100 µM (inactive) | > 100 µM (inactive) | > 100 µM (inactive) | > 100 µM (inactive) | > 100 µM (inactive) | > 100 µM (inactive) | > 100 µM (inactive) | > 100 µM (inactive) |  | > 100 µM (inactive) | > 100 µM (inactive) | > 100 µM (inactive) |  |  |  |  |
| COC(=O)C(=O)CC(=O)CCn1[nH]c(=O)c(Cl)c(Cl)c1=O | > 100 µM (inactive) | > 100 µM (inactive) | > 100 µM (inactive) | > 100 µM (inactive) | > 100 µM (inactive) | > 100 µM (inactive) | > 100 µM (inactive) | > 100 µM (inactive) | > 100 µM (inactive) | > 100 µM (inactive) | > 100 µM (inactive) | > 100 µM (inactive) | > 100 µM (inactive) | > 100 µM (inactive) | > 100 µM (inactive) | > 100 µM (inactive) |  |  |  |  |
| CC(=O)NC1=C(Sc2ccc(Cl)cc2)C(=O)c2ccccc2C1=O | 2.09 µM (inactive) | 11.5 µM (inactive) | 3.7 µM (inactive) | 14.7 µM (inactive) |  | 2.97 µM (inactive) | 5.28 µM (inactive) | 2.05 µM (inactive) | 2.04 µM (inactive) | 2.53 µM (inactive) | 8.81 µM (inactive) | 1.95 µM (inactive) | 3.5 µM (inactive) | 0.285 µM (active) | 3.88 µM (inactive) | 5.33 µM (inactive) | 2.21 µM (inactive) | 4.81 µM (inactive) | 14.6 µM (inactive) | 2.37 µM (inactive) |
| COc1ccc(OC2OC(CO)C(OCc3ccccc3)C(OCc3ccccc3)C2OCc2ccccc2)cc1 (centres undefined) | 39.5 µM (inactive) | 11.1 µM (inactive) | > 100 µM (inactive) | > 100 µM (inactive) |  | 39.1 µM (inactive) | 14.4 µM (inactive) | > 100 µM (inactive) | > 100 µM (inactive) | 22.3 µM (inactive) | 76.7 µM (inactive) | 41 µM (inactive) | > 100 µM (inactive) | 88.9 µM (inactive) | > 100 µM (inactive) | > 100 µM (inactive) | 15.5 µM (inactive) | > 100 µM (inactive) | > 100 µM (inactive) | 61.9 µM (inactive) |
| Cc1ccc(S(=O)(=O)NCCCN(CCCNS(=O)(=O)c2ccc(C)cc2)S(=O)(=O)c2ccc(C)cc2)cc1 | > 100 µM (inactive) | > 100 µM (inactive) |  | > 100 µM (inactive) | > 100 µM (inactive) | > 100 µM (inactive) | > 100 µM (inactive) | > 100 µM (inactive) | > 100 µM (inactive) | > 100 µM (inactive) | > 100 µM (inactive) | > 100 µM (inactive) |  | > 100 µM (inactive) |  | > 100 µM (inactive) | 69.7 µM (inactive) |  |  |  |
